Patent US11053239B2, “Compounds as BLC-2-selective apoptosis-inducing agents” (Fochon Pharmaceuticals, Ltd., priority 2017, dated 2021)
Read-outs that look alike come from different tables or passages of the source.

Columns and labels:
[1] = tested on: DOHH2 cells; assay: Cell proliferation assay (MTS), DOHH2 cells; type: cell-based; details: DOHH2 (DSMZ ACC 47) cell proliferation, 5000 cells/well, 120 h, MTS, mechanism-based readout of Bcl-2 inhibition, read-out: DOHH2 IC50
From the text: (§1) MTS testing kit was purchased from Promega. The RPMI-1640, Fetal bovine serum and Penicillin-Streptomycin were purchased from Gibco. Dimethyl sulfoxide (DMSO) was purchased from Sigma.
(§2) To investigate whether a compound is able to inhibit the activity of Bcl-2 in cells, a mechanism-based assay using DOHH2 (DSMZ No.® ACC 47) and RS4; 11 (ATCC® CRL-1873™) cell was developed. In this assay, inhibition of Bcl-2 was detected by the inhibition of DOHH2 and RS4; 11 cells proliferation. DOHH2 and RS4; 11 cells were cultured in culture flasks to 40-80% confluence in RPMI-1640 plus 10% fetal bovine serum. Cells were collected and plated onto 96-well plates at desired cell density (DOHH2: 5000 cells/well; RS4; 11: 30000 cells/well). Plates were incubated overnight at 37° C., with 5% CO2 to adhere. Compounds were added to the plates, and the final compound concentrations were 10000, 3333, 1111, […], 124, 41, 14, 4.6 and 1.5 nM. Plates plated with DOHH2 or RS4; 11 cells were placed at 37° C., with 5% CO2 for 120 h (DOHH2) or 72 h (RS4; 11) respectively. 20 μl MTS/100 μl medium mixture solution were added to each well and incubate the plates for exactly 2 hours. The reaction was stopped by adding 25 μl 10% SDS per well. Measure absorbance at 490 nm and 650 nm (reference wavelength). ICso was calculated using GraphPad Prism 5.0.

[2] = tested on: RS4; 11 cells; assay: Cell proliferation assay (MTS), RS4; 11 cells; type: cell-based; details: RS4, 11 (ATCC CRL-1873) cell proliferation, 30000 cells/well, 72 h, MTS, mechanism-based readout of Bcl-2 inhibition, read-out: RS4, 11 IC50
From the text: as §1, §2

Row | IC50 ([2]; Homo sapiens, RS4-11, 72 h) | IC50 [2] | SMILES | IC50 ([1]; Homo sapiens, DOHH-2, 120 h) | IC50 [1]
1 | 29 nM | – | CC(=O)N=S1(=O)CCN(C[C@H](C)Nc2ccc(S(=O)(=O)NC(=O)c3ccc(N4CCN(CC5=C(c6ccc(Cl)cc6)CC(C)(C)CC5)CC4)cc3Oc3cnc4[nH]ccc4c3)cc2[N+](=O)[O-])CC1 [Example 40, (S)-2-((1H-pyrrolo[2,3-b]pyridin-5-yl)oxy)-N-((4-((1-(1-(acetylimino)-1-oxido-1λ^6-thiomorpholino)propan-2-yl)amino)-3-nitrophenyl)sulfonyl)-4-(4-((4′-chloro-5,5-dimethyl-3,4,5,6-tetrahydro-[1,1′-biphenyl]-2-yl)methyl)piperazin-1-yl)benzamide] | 84 nM | –
2 | 43 nM | – | CC1(C)CCC(CN2CCN(c3ccc(C(=O)NS(=O)(=O)c4ccc(NCC5CCS(=O)(=NC6CC6)CC5)c([N+](=O)[O-])c4)c(Oc4cnc5[nH]ccc5c4)c3)CC2)=C(c2ccc(Cl)cc2)C1 (stereo not drawn) [Example 5, 2-((1H-pyrrolo[2,3-b]pyridin-5-yl)oxy)-4-(4-((4′-chloro-5,5-dimethyl-3,4,5,6-tetrahydro-[1,1′-biphenyl]-2-yl)methyl)piperazin-1-yl)-N-((4-(((1-(cyclopropylimino)-1-oxidohexahydro-1λ^6-thiopyran-4-yl)methyl)amino)-3-nitrophenyl)sulfonyl)benzamide] | 92 nM | –
3 | 231 nM | – | CC1(C)CCC(CN2CCN(c3ccc(C(=O)NS(=O)(=O)c4ccc(NCC5CCC(N=S6(=O)CCOCC6)CC5)c(S(=O)(=O)C(F)(F)F)c4)c(Oc4cnc5[nH]ccc5c4)c3)CC2)=C(c2ccc(Cl)cc2)C1 (stereo not drawn) [Example 55, 2-((1H-pyrrolo[2,3-b]pyridin-5-yl)oxy)-4-(4-((4′-chloro-5,5-dimethyl-3,4,5,6-tetrahydro-[1,1′-biphenyl]-2-yl)methyl)piperazin-1-yl)-N-((4-(((4-((4-oxido-1,4λ^6-oxathian-4-ylidene)amino)cyclohexyl)methyl)amino)-3-((trifluoromethyl)sulfonyl)phenyl)sulfonyl) benzamide] | 346 nM | –
4 | – | 12 nM | CC1(C)CCC(CN2CCN(c3ccc(C(=O)NS(=O)(=O)c4ccc(NCC5CCC(NS(C)(=N)=O)CC5)c([N+](=O)[O-])c4)c(Oc4cnc5[nH]ccc5c4)c3)CC2)=C(c2ccc(Cl)cc2)C1 (stereo not drawn) [Example 56, 4-(4-{[2-(4-chlorophenyl)-4,4-dimethylcyclohexyl-1-en-1-yl]methyl}piperazin-1-yl)-N-(4-{[(4-methanesulfono-imidamidocyclohexyl)methyl]amino}-3-nitrobenzenesulfonyl)-2-{1H-pyrrolo[2,3-b]pyridine-5-yloxy}benzamide] | – | 50 nM
5 | 12 nM | – | CC(=O)N=S1(=O)CCN(CCNc2ccc(S(=O)(=O)NC(=O)c3ccc(N4CCN(CC5=C(c6ccc(Cl)cc6)CC(C)(C)CC5)CC4)cc3Oc3cnc4[nH]ccc4c3)cc2[N+](=O)[O-])CC1 [Example 37, 2-((1H-pyrrolo[2,3-b]pyridin-5-yl)oxy)-N-((4-((2-(1-(acetylimino)-1-oxido-1λ^6-thiomorpholino)ethyl)amino)-3-nitrophenyl)sulfonyl)-4-(4-((4′-chloro-5,5-dimethyl-3,4,5,6-tetrahydro-[1,1′-biphenyl]-2-yl)methyl)piperazin-1-yl) benzamide] | 228 nM | –
6 | 33 nM | – | CC1(C)CCC(CN2CCN(c3ccc(C(=O)NS(=O)(=O)c4ccc(NCC5CCS(=O)(=NC6CC6)CC5)c(S(=O)(=O)C(F)(F)F)c4)c(Oc4cnc5[nH]ccc5c4)c3)CC2)=C(c2ccc(Cl)cc2)C1 (stereo not drawn) [Example 8, 2-((1H-pyrrolo[2,3-b]pyridin-5-yl)oxy)-4-(4-((4′-chloro-5,5-dimethyl-3,4,5,6-tetrahydro-[1,1′-biphenyl]-2-yl)methyl)piperazin-1-yl)-N-((4-(((1-(cyclopropylimino)-1-oxidohexahydro-1λ^6-thiopyran-4-yl)methyl)amino)-3-((trifluoromethyl)sulfonyl)phenyl)sulfonyl)benzamide] | 99 nM | –
